# Values of other authors, collected in patent US12509462B2, “3-(phenylsulfonyl)-[1,2,3]triazolo[1,5A]quinazolin-5(4H)-one derivatives” (BIOVERSYS AG, priority 2018, dated 2025).
# Tested on: hla, psmα and pvl
# Conditions: across all four agr groups; cited from earlier work
compound,measurement,value
"CC(C)c1ccc(S(=O)(=O)c2nnn3c2nc(O)c2ccccc23)cc1 [Savirin, reference compound]","Modulation of AgrA-regulated toxin gene transcription such as hla, psmα and pvl",potent modulator
